Data reported in US7045665B2, “Glucopyranosyloxybenzylbenzene derivatives, medicinal compositions containing the same and intermediates for the preparation of the derivatives” (Kissei Pharmaceutical Co., Ltd., priority 2000, dated 2006).
pIC50: −log10 of the molar value.

Key:
human SGLT2 = target: T1, human SGLT2 (Homo sapiens, UniProt P31639, I433V); assay: Assay for inhibitory effect on human SGLT2 activity (uptake of methyl-α-D-glucopyranoside); assay type: cell-based; conditions: COS-7 cells transiently expressing human SGLT2; uptake of methyl-α-D-(U-14C)glucopyranoside, 37° C., 2 hours
T1 construct: expressed in transfected cells; host or cells: COS-7 cells (RIKEN CELL BANK RCB0539), transient, electroporation
T1 sequence (P31639 1-672 I433V): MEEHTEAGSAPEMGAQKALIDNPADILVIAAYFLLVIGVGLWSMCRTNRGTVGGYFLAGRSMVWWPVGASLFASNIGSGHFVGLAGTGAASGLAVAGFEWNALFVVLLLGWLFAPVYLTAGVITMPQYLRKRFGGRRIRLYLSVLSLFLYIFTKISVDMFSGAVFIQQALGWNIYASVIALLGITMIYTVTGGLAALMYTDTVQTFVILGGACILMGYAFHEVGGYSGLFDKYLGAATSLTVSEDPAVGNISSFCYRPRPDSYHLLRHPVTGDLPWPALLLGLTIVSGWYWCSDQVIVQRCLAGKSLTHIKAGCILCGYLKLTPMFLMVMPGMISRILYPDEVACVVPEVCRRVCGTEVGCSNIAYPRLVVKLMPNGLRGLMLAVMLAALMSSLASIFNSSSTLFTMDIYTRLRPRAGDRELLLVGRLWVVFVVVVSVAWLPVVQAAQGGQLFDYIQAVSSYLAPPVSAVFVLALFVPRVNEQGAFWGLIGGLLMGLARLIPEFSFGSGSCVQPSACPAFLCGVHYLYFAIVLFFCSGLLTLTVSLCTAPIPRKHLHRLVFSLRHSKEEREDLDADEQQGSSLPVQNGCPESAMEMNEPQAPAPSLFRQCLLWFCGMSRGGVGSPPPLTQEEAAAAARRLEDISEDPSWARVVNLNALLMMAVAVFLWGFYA
Experimental: Assay for Inhibitory Effect on Human SGLT2 Activity
Preparation of the cDNA library for PCR amplification was performed by reverse transcription of a total RNA deprived from human kidney (Ori gene) with oligo dT as the primer, using […] Preamplification System (Gibco-BRL: LIFE TECHNOLOGIES). […] The amplified DNA fragment was ligated into pCR-Blunt (Invitrogen), a vector for cloning, according to standard method of the kit. […] The amplified DNA fragment was digested with restriction enzymes, Xho I and Hind III, and then purified with Wizard Purification System (Promega).
KL29, the plasmid coding human SGLT2, was transfected into COS-7 cells (RIKEN CELL BANK RCB0539) by electroporation. Electroporation was performed with GENE PULSER II (Bio-Rad Laboratories) under the condition: 0.290 kV, 975 μF, 2×10^6 cells of COS-7 cell and 20 μg of KL29 in 500 μL of OPTI-MEM I medium (Gibco-BRL: LIFE TECHNOLOGIES) in the 0.4 cm type cuvette. After the gene transfer, the cells were harvested by centrifugation and resuspended with OPTI-MEM I medium (1 mL/cuvette). To each well in 96-wells plate, 125 μL of this cell suspension was added.

[1] = tested on: urinary glucose excretion; assay: Assay for the facilitatory effect on urinary glucose excretion; assay type: in vivo; conditions: SD rats, 1 mg/kg intravenous, oral glucose 2 g/kg; in 24 hours per 200 g of body weight
Experimental: Assay for the Facilitatory Effect on Urinary Glucose Excretion
As experimental animal, overnight fasted SD rats (SLC., male, 7 weeks of age, 180–240 g) were used. Ten mg of test compound was suspended or dissolved in 300 μL of ethanol and then dissolved by adding of 1.2 mL of polyethylene glycol 400 and 1.5 mL of saline, and then 3.3 mg/mL solution was prepared. Three hundred μL of this solution was dissolved with 2.7 mL of the solution for dilution (saline:polyethylene glycol 400:ethanol=5:4:1) and then 0.33 mg/mL solution was prepared. After the body weights of rats were measured, the solution of test compound was intravenously injected to the tail vein at the dose of 3 mL/kg (1 mg/kg). For control, just only the solution (saline:polyethylene glycol 400:ethanol=5:4:1) was intravenously injected to the tail vein at the dose of 3 mL/kg. Immediately after intravenous injection to the tail vein, 200 g/L of glucose solution was orally administered to the rats at the dose of 10 mL/kg (2 g/kg). The intravenous injection to the tail vein was performed with 26 G injection needle and 1 mL syringe. The oral administration was performed with gastric tube for rat and 2.5 mL syringe. The head count in one group was 2 or 3. Collection of urine was performed in metabolic cage after the oral administration of glucose was finished. The sampling time for collection of urine was 24 hours after the oral administration of glucose. After the collection of urine was finished, the urine volume was recorded and the urinary glucose concentration was measured. The glucose concentration was measured with a kit for laboratory test: Glucose B-Test WAKO (Wako Pure Chemical Industries, Ltd.). The amount of urinary glucose excretion in 24 hours per 200 g of body weight was calculated from urine volume, urinary glucose concentration and body weight.

ICR mice = assay: Acute toxicity test; assay type: in vivo; conditions: male ICR mice, 2000 mg/kg subcutaneous, 5 animals
Experimental: Five weeks old male ICR mice (CLEA JAPAN, INC. 29–34 g, 5 animals in each group) were fasted for 4 hours, and 666 mg/mL of a suspension which was prepared by adding saline:polyethylene glycol 400:ethanol (5:4:1) to 2-[4-(2-hydroxyethyl)benzyl]phenyl β-D-glucopyranoside (the compound described in Example 10) was subcutaneously administered at the dose of 3 mL/kg (2000 mg/kg).

| SMILES | pIC50 (human SGLT2) | Amount of urinary glucose excretion [1] [mg] | Death until 24 hours after the administration (ICR mice) |
| --- | --- | --- | --- |
| OCCCc1ccc(Cc2ccccc2O[C@@H]2O[C@H](CO)[C@@H](O)[C@H](O)[C@H]2O)cc1 [Example 11, 2-[4-(3-Hydroxypropyl)benzyl]phenyl β-D-glucopyranoside] | 7.12 | – | – |
| CCc1ccc(Cc2ccc(CO)cc2O[C@@H]2O[C@H](CO)[C@@H](O)[C@H](O)[C@H]2O)cc1 [Example 8, 2-(4-Ethylbenzyl)-5-hydroxymethylphenyl β-D-glucopyranoside] | 8.09 | 238.9 | – |
| COc1ccc(Cc2ccccc2O[C@@H]2O[C@H](CO)[C@@H](O)[C@H](O)[C@H]2O)cc1 [Example 1, 2-(4-Methoxybenzyl)phenyl β-D-glucopyranoside] | – | 27.4 | – |
| CCCOc1ccc(Cc2ccc(CO)cc2O[C@@H]2O[C@H](CO)[C@@H](O)[C@H](O)[C@H]2O)cc1 [Example 7, 5-Hydroxymethyl-2-(4-propoxybenzyl)phenyl β-D-glucopyranoside] | 6.85 | 109.1 | – |
| OCCc1ccc(Cc2ccccc2O[C@@H]2O[C@H](CO)[C@@H](O)[C@H](O)[C@H]2O)cc1 [Example 10, 2-[4-(2-Hydroxyethyl)benzyl]phenyl β-D-glucopyranoside] | 6.68 | 69.5 | No death was observed |
| OCCc1ccc(Cc2ccc(CO)cc2O[C@@H]2O[C@H](CO)[C@@H](O)[C@H](O)[C@H]2O)cc1 [Example 9, 2-[4-(2-Hydroxyethyl)benzyl]-5-hydroxymethylphenyl β-D-glucopyranoside] | 7.57 | – | – |
